# Counter-ions that a name gives are not always drawn. Like-named read-outs stand apart in the source and are kept apart here.
# Experiments:
# Experiment in all cases: AK assay 384-well format, Prestwick library screening
# E. coli = assay type: cell-based, Escherichia coli; settings: for fold induction at 50 µM: Escherichia coli, 3 h
# P. aeruginosa = assay type: cell-based, Pseudomonas aeruginosa; settings: for fold induction at 50 µM: Pseudomonas aeruginosa, 3 h
# K. pneumoniae = assay type: cell-based, Klebsiella pneumoniae; settings: for fold induction at 50 µM: Klebsiella pneumoniae, 3 h
# E. cloacae = assay type: cell-based, Enterobacter cloacae; settings: for fold induction at 50 µM: Enterobacter cloacae, 3 h
# [1] = test system: S. aureus strain USA300-0114; assay type: cell-based, Staphylococcus aureus; settings: for fold induction at 50 µM: Staphylococcus aureus, USA300, 3 h
# E. faecium = assay type: cell-based, Enterococcus faecium; settings: for fold induction at 50 µM: Enterococcus faecium, 3 h
# [2] = test system: A. baumannii strain 98-37-09; assay type: cell-based, Acinetobacter baumannii; settings: for fold induction at 50 µM: Acinetobacter baumannii, 983709, 3 h
# [3] = 50 μM final drug concentration, cutoff for positive-scoring molecules 3-fold increase
# [4] = 50 μM final drug concentration, cutoff for positive-scoring molecules 3-fold increase, read-out: AK-based Prestwick Library Screening Results, E. coli (fold increase in extracellular AK activity)
# [5] = 50 μM final drug concentration, cutoff for positive-scoring molecules 3-fold increase, read-out: AK-based Prestwick Library Screening Results, P. aeruginosa (fold increase in extracellular AK activity)
# [6] = 50 μM final drug concentration, cutoff for positive-scoring molecules 3-fold increase, read-out: AK-based Prestwick Library Screening Results, K. pneumoniae (fold increase in extracellular AK activity)
# [7] = 50 μM final drug concentration, cutoff for positive-scoring molecules 3-fold increase, read-out: AK-based Prestwick Library Screening Results, E. cloacae (fold increase in extracellular AK activity)
# [8] = 50 μM final drug concentration, cutoff for positive-scoring molecules 3-fold increase, read-out: AK-based Prestwick Library Screening Results, S. aureus (fold increase in extracellular AK activity)
# [9] = 50 μM final drug concentration, cutoff for positive-scoring molecules 3-fold increase, read-out: AK-based Prestwick Library Screening Results, E. faecium (fold increase in extracellular AK activity)
# [10] = 50 μM final drug concentration, cutoff for positive-scoring molecules 3-fold increase, read-out: AK-based Prestwick Library Screening Results, A. baumannii (fold increase in extracellular AK activity)
# [11] = 50 μM final drug concentration, planktonic, […]
# [12] = 50 μM final drug concentration, planktonic, cutoff for positive 3-fold increase
compound,measurement,setting,value
CC[N+](C)(CC)CCC[n+]1c(-c2ccccc2)c2cc(N)ccc2c2ccc(N)cc21.[I-].[I-] [Propidium iodide],"AK-based Prestwick Library Screening Results, E. coli (fold increase in extracellular AK activity)",E. coli; [3],1.3
same,"AK-based Prestwick Library Screening Results, P. aeruginosa (fold increase in extracellular AK activity)",P. aeruginosa; [3],1.0
same,"AK-based Prestwick Library Screening Results, K. pneumoniae (fold increase in extracellular AK activity)",K. pneumoniae; [3],0.8
same,"AK-based Prestwick Library Screening Results, E. cloacae (fold increase in extracellular AK activity)",E. cloacae; [3],1.6
same,"AK-based Prestwick Library Screening Results, S. aureus (fold increase in extracellular AK activity)",[1]; [3],1.4
same,"AK-based Prestwick Library Screening Results, E. faecium (fold increase in extracellular AK activity)",E. faecium; [3],0.8
same,"AK-based Prestwick Library Screening Results, A. baumannii (fold increase in extracellular AK activity)",[2]; [3],1.1
CC(C)c1cccc(C(C)C)c1O [Propofol],fold induction at 50 µM,"E. coli; read-out: AK-based Prestwick Library Screening Results, E. coli (fold increase in extracellular AK activity)",1.3
same,fold induction at 50 µM,"P. aeruginosa; read-out: AK-based Prestwick Library Screening Results, P. aeruginosa (fold increase in extracellular AK activity)",1
same,fold induction at 50 µM,"K. pneumoniae; read-out: AK-based Prestwick Library Screening Results, K. pneumoniae (fold increase in extracellular AK activity)",1.1
same,fold induction at 50 µM,"E. cloacae; read-out: AK-based Prestwick Library Screening Results, E. cloacae (fold increase in extracellular AK activity)",1.7
same,fold induction at 50 µM,"[1]; read-out: AK-based Prestwick Library Screening Results, S. aureus (fold increase in extracellular AK activity)",1.2
same,fold induction at 50 µM,"E. faecium; read-out: AK-based Prestwick Library Screening Results, E. faecium (fold increase in extracellular AK activity)",1
same,fold induction at 50 µM,"[2]; read-out: AK-based Prestwick Library Screening Results, A. baumannii (fold increase in extracellular AK activity)",1
CCCOc1cc(N)ccc1C(=O)OCCN(CC)CC [Propoxycaine hydrochloride],fold induction at 50 µM,"E. coli; planktonic E. coli, 50 μM final drug concentration, positive cutoff 3-fold increase, read-out: AK-based Prestwick library screening result, E. coli (fold increase in extracellular AK activity)",0.6
same,fold induction at 50 µM,"P. aeruginosa; planktonic P. aeruginosa, 50 μM final drug concentration, positive cutoff 3-fold increase, read-out: AK-based Prestwick library screening result, P. aeruginosa (fold increase in extracellular AK activity)",0.7
same,fold induction at 50 µM,"K. pneumoniae; planktonic K. pneumoniae, 50 μM final drug concentration, positive cutoff 3-fold increase, read-out: AK-based Prestwick library screening result, K. pneumoniae (fold increase in extracellular AK activity)",0.6
same,fold induction at 50 µM,"E. cloacae; planktonic E. cloacae, 50 μM final drug concentration, positive cutoff 3-fold increase, read-out: AK-based Prestwick library screening result, E. cloacae (fold increase in extracellular AK activity)",0.8
same,fold induction at 50 µM,"[1]; planktonic S. aureus, 50 μM final drug concentration, positive cutoff 3-fold increase, read-out: AK-based Prestwick library screening result, S. aureus (fold increase in extracellular AK activity)",0.7
same,fold induction at 50 µM,"E. faecium; planktonic E. faecium, 50 μM final drug concentration, positive cutoff 3-fold increase, read-out: AK-based Prestwick library screening result, E. faecium (fold increase in extracellular AK activity)",1
same,fold induction at 50 µM,"[2]; planktonic A. baumannii, 50 μM final drug concentration, positive cutoff 3-fold increase, read-out: AK-based Prestwick library screening result, A. baumannii (fold increase in extracellular AK activity)",0.8
CC(C)NCC(O)COc1cccc2ccccc12 (stereo not shown) [Propranolol hydrochloride],fold induction at 50 µM,E. coli; [4],1.2
same,fold induction at 50 µM,P. aeruginosa; [5],1.2
same,fold induction at 50 µM,K. pneumoniae; [6],1.1
same,fold induction at 50 µM,E. cloacae; [7],1.4
same,fold induction at 50 µM,[1]; [8],1.4
same,fold induction at 50 µM,E. faecium; [9],1.1
same,fold induction at 50 µM,[2]; [10],1.2
CCCc1cc(=O)[nH]c(=S)[nH]1 [Propylthiouracil],fold induction at 50 µM,"E. coli; planktonic E. coli, 50 μM final drug concentration, cutoff for positive-scoring molecules 3-fold increase, read-out: AK-based Prestwick Library Screening Results, E. coli (increase in extracellular AK activity)",0.7
same,fold induction at 50 µM,"P. aeruginosa; planktonic P. aeruginosa, 50 μM final drug concentration, cutoff for positive-scoring molecules 3-fold increase, read-out: AK-based Prestwick Library Screening Results, P. aeruginosa (increase in extracellular AK activity)",0.7
same,fold induction at 50 µM,"K. pneumoniae; planktonic K. pneumoniae, 50 μM final drug concentration, cutoff for positive-scoring molecules 3-fold increase, read-out: AK-based Prestwick Library Screening Results, K. pneumoniae (increase in extracellular AK activity)",0.6
same,fold induction at 50 µM,"E. cloacae; planktonic E. cloacae, 50 μM final drug concentration, cutoff for positive-scoring molecules 3-fold increase, read-out: AK-based Prestwick Library Screening Results, E. cloacae (increase in extracellular AK activity)",1.1
same,fold induction at 50 µM,"[1]; planktonic S. aureus, 50 μM final drug concentration, cutoff for positive-scoring molecules 3-fold increase, read-out: AK-based Prestwick Library Screening Results, S. aureus (increase in extracellular AK activity)",0.7
same,fold induction at 50 µM,"E. faecium; planktonic E. faecium, 50 μM final drug concentration, cutoff for positive-scoring molecules 3-fold increase, read-out: AK-based Prestwick Library Screening Results, E. faecium (increase in extracellular AK activity)",1
same,fold induction at 50 µM,"[2]; planktonic A. baumannii, 50 μM final drug concentration, cutoff for positive-scoring molecules 3-fold increase, read-out: AK-based Prestwick Library Screening Results, A. baumannii (increase in extracellular AK activity)",0.8
C[C@@H]1O[C@@H](O[C@@H]2C=C3CC[C@@H]4[C@H](CC[C@]5(C)[C@@H](c6ccc(=O)oc6)CC[C@]45O)[C@@]3(C)CC2)[C@H](O)[C@H](O)[C@H]1O [Proscillaridin A],"AK-based Prestwick library screening result, E. coli (fold increase in extracellular AK activity)","E. coli; planktonic E. coli, 50 μM final drug concentration, […]",0.9
same,"AK-based Prestwick library screening result, P. aeruginosa (fold increase in extracellular AK activity)","P. aeruginosa; planktonic P. aeruginosa, 50 μM final drug concentration, […]",0.9
same,"AK-based Prestwick library screening result, K. pneumoniae (fold increase in extracellular AK activity)","K. pneumoniae; planktonic K. pneumoniae, 50 μM final drug concentration, […]",0.7
same,"AK-based Prestwick library screening result, E. cloacae (fold increase in extracellular AK activity)","E. cloacae; planktonic E. cloacae, 50 μM final drug concentration, […]",0.9
same,"AK-based Prestwick library screening result, S. aureus (fold increase in extracellular AK activity)","[1]; planktonic S. aureus, 50 μM final drug concentration, […]",0.6
same,"AK-based Prestwick library screening result, E. faecium (fold increase in extracellular AK activity)","E. faecium; planktonic E. faecium, 50 μM final drug concentration, […]",0.8
same,"AK-based Prestwick library screening result, A. baumannii (fold increase in extracellular AK activity)","[2]; planktonic A. baumannii, 50 μM final drug concentration, […]",0.8
CC[C@@H](C)C(=O)O[C@H]1[C@H](O)[C@H]2[C@@H](CN3C[C@@H](C)CC[C@H]3[C@@]2(C)O)[C@@H]2C[C@]34O[C@]5(O)[C@@H](OC(=O)[C@@](C)(O)CC)CC[C@@]3(C)[C@@H]5[C@@H](OC(C)=O)[C@@H](OC(C)=O)[C@H]4[C@@]21O [Protoveratrine A],"AK-based Prestwick Library Screening Results, E. coli (fold increase in extracellular AK activity)",E. coli; [11],1.1
same,"AK-based Prestwick Library Screening Results, P. aeruginosa (fold increase in extracellular AK activity)",P. aeruginosa; [11],1.1
same,"AK-based Prestwick Library Screening Results, K. pneumoniae (fold increase in extracellular AK activity)",K. pneumoniae; [11],1.2
same,"AK-based Prestwick Library Screening Results, E. cloacae (fold increase in extracellular AK activity)",E. cloacae; [11],1.3
same,"AK-based Prestwick Library Screening Results, S. aureus (fold increase in extracellular AK activity)",[1]; [11],1.2
same,"AK-based Prestwick Library Screening Results, E. faecium (fold increase in extracellular AK activity)",E. faecium; [11],1.0
same,"AK-based Prestwick Library Screening Results, A. baumannii (fold increase in extracellular AK activity)",[2]; [11],1.2
CNCCCC1c2ccccc2C=Cc2ccccc21 [Protriptyline hydrochloride],fold induction at 50 µM,E. coli; [4],1.2
same,fold induction at 50 µM,P. aeruginosa; [5],1.2
same,fold induction at 50 µM,K. pneumoniae; [6],1.1
same,fold induction at 50 µM,E. cloacae; [7],1.4
same,fold induction at 50 µM,[1]; [8],2.8
same,fold induction at 50 µM,E. faecium; [9],1
same,fold induction at 50 µM,[2]; [10],1.1
CC(O)Cn1cnc2c1c(=O)n(C)c(=O)n2C (stereo not shown) [Proxyphylline],fold induction at 50 µM,"E. coli; 50 μM final drug concentration, planktonic, cutoff for positive-scoring molecules 3-fold increase, read-out: AK-based Prestwick Library Screening Results, E. coli (fold increase in extracellular AK activity)",0.5
same,fold induction at 50 µM,"P. aeruginosa; 50 μM final drug concentration, planktonic, cutoff for positive-scoring molecules 3-fold increase, read-out: AK-based Prestwick Library Screening Results, P. aeruginosa (fold increase in extracellular AK activity)",0.5
same,fold induction at 50 µM,"K. pneumoniae; 50 μM final drug concentration, planktonic, cutoff for positive-scoring molecules 3-fold increase, read-out: AK-based Prestwick Library Screening Results, K. pneumoniae (fold increase in extracellular AK activity)",0.5
same,fold induction at 50 µM,"E. cloacae; 50 μM final drug concentration, planktonic, cutoff for positive-scoring molecules 3-fold increase, read-out: AK-based Prestwick Library Screening Results, E. cloacae (fold increase in extracellular AK activity)",0.5
same,fold induction at 50 µM,"[1]; 50 μM final drug concentration, planktonic, cutoff for positive-scoring molecules 3-fold increase, read-out: AK-based Prestwick Library Screening Results, S. aureus (fold increase in extracellular AK activity)",0.5
same,fold induction at 50 µM,"E. faecium; 50 μM final drug concentration, planktonic, cutoff for positive-scoring molecules 3-fold increase, read-out: AK-based Prestwick Library Screening Results, E. faecium (fold increase in extracellular AK activity)",0.9
same,fold induction at 50 µM,"[2]; 50 μM final drug concentration, planktonic, cutoff for positive-scoring molecules 3-fold increase, read-out: AK-based Prestwick Library Screening Results, A. baumannii (fold increase in extracellular AK activity)",0.6
CN1[C@@H]2CCC[C@H]1CC(=O)C2.Cl [Pseudopelletierine hydrochloride],"AK-based Prestwick Library Screening Results, E. coli (fold increase in extracellular AK activity)",E. coli; [11],1.4
same,"AK-based Prestwick Library Screening Results, P. aeruginosa (fold increase in extracellular AK activity)",P. aeruginosa; [12],1.1
same,"AK-based Prestwick Library Screening Results, K. pneumoniae (fold increase in extracellular AK activity)",K. pneumoniae; [12],1.2
same,"AK-based Prestwick Library Screening Results, E. cloacae (fold increase in extracellular AK activity)",E. cloacae; [12],1.5
same,"AK-based Prestwick Library Screening Results, S. aureus (fold increase in extracellular AK activity)",[1]; [12],1.0
same,"AK-based Prestwick Library Screening Results, E. faecium (fold increase in extracellular AK activity)",E. faecium; [12],0.9
same,"AK-based Prestwick Library Screening Results, A. baumannii (fold increase in extracellular AK activity)",[2]; [12],1.2

# Reference: patent US10004701B2, “Methods and compositions for treating infection” (UNIVERSITY OF ROCHESTER, priority 2012, dated 2018)
